# Patent US20260138958A1, “SUBSTITUTED N-PHENYLURACILS AND SALTS THEREOF, AND USE THEREOF AS HERBICIDAL ACTIVE SUBSTANCES” (Bayer Aktiengesellschaft, priority 2022, published 2026)
# Columns and labels:
# Format in all cases: in vivo
# Zea mays (ZEAMX) = assay: Post-emergence crop plant compatibility, greenhouse pot test; conditions: crop plant, post-emergence, 1.25 g/ha
# In short: (§1)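 Visual % damage scores were taken roughly 3 weeks after treatment, relative to untreated plants, where 100% means plants died and 0% means no difference. Plants received aqueous sprays (WP or EC, 0.5% additive, 600 l/ha) on green parts at the one-leaf stage, 2–3 weeks after sowing.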
# [1] = tested on: Triticum aestivum (TRZAS); assay: as above; conditions: crop plant, post-emergence, 1.25 g/ha
# In short: as §1
# Oryza sativa (ORYSA) = assay: as above; conditions: crop plant, post-emergence
# In short: as §1
# Setaria viridis (SETVI) = assay: Post-emergence herbicidal action, greenhouse pot test
# In short: (§2)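 Weeds grown in sandy loam under controlled greenhouse conditions were sprayed at the one-leaf stage, 2 to 3 weeks after sowing, with WP or EC formulations as aqueous suspension or emulsion plus 0.5% additive at 600 l/ha water. Damage was scored visually after about 3 weeks versus untreated controls (0% = like control, 100% = dead).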
# Lolium rigidum (LOLRI) = assay: as above
# In short: as §2
# [2] = tested on: Echinochloa crus-galli (ECHCG); assay: as above
# In short: as §2
# Veronica persica (VERPE) = assay: as above
# In short: as §2
# Viola tricolor (VIOTR) = assay: as above
# In short: as §2
# [3] = tested on: Alopecurus myosuroides (ALOMY); assay: as above
# In short: as §2
# [4] = tested on: Pharbitis purpurea (PHBPU); assay: as above
# In short: as §2
# [5] = tested on: Polygonum convolvulus (POLCO); assay: as above
# In short: as §2
# [6] = tested on: Amaranthus retroflexus (AMARE); assay: as above
# In short: as §2
# [7] = tested on: Abutilon theophrasti (ABUTH); assay: as above
# In short: as §2
# [8] = tested on: Tripleurospermum inodorum (MATIN); assay: as above
# In short: as §2
compound,measurement,setting,value
Cn1c(C(F)(F)F)cc(=O)n(-c2cc(Oc3ccccc3OCC(=O)OCC3CC3)c(Cl)cc2F)c1=O [I.7-1],Post-emergence effect at 1.25 g/ha against ZEAMX in %,Zea mays (ZEAMX),20%
same,Post-emergence effect at 1.25 g/ha against TRZAS in %,[1],0%
same,Post-emergence effect at 1.25 g/ha against ORYSA in %,Oryza sativa (ORYSA); 1.25 g/ha,0%
same,Post-emergence effect at 5 g/ha against ORYSA in %,Oryza sativa (ORYSA); 5 g/ha,20%
same,Post-emergence effect at 1.25 g/ha against SETVI in %,Setaria viridis (SETVI); 1.25 g/ha,100%
same,Post-emergence effect at 5 g/ha against SETVI in %,Setaria viridis (SETVI); 5 g/ha,100%
same,Post-emergence effect at 20 g/ha against SETVI in %,Setaria viridis (SETVI); 20 g/ha,100%
same,Post-emergence effect at 20 g/ha against LOLRI in %,Lolium rigidum (LOLRI),80%
same,Post-emergence effect at 1.25 g/ha against ECHCG in %,[2]; 1.25 g/ha,100%
same,Post-emergence effect at 5 g/ha against ECHCG in %,[2]; 5 g/ha,100%
same,Post-emergence effect at 20 g/ha against ECHCG in %,[2]; 20 g/ha,100%
same,Post-emergence effect at 1.25 g/ha against VERPE in %,Veronica persica (VERPE); 1.25 g/ha,100%
same,Post-emergence effect at 5 g/ha against VERPE in %,Veronica persica (VERPE); 5 g/ha,100%
same,Post-emergence effect at 20 g/ha against VERPE in %,Veronica persica (VERPE); 20 g/ha,100%
same,Post-emergence effect at 1.25 g/ha against VIOTR in %,Viola tricolor (VIOTR); 1.25 g/ha,100%
same,Post-emergence effect at 5 g/ha against VIOTR in %,Viola tricolor (VIOTR); 5 g/ha,100%
same,Post-emergence effect at 20 g/ha against VIOTR in %,Viola tricolor (VIOTR); 20 g/ha,100%
same,Post-emergence effect at 5 g/ha against ALOMY in %,[3]; 5 g/ha,90%
same,Post-emergence effect at 20 g/ha against ALOMY in %,[3]; 20 g/ha,100%
same,Post-emergence effect at 1.25 g/ha against PHBPU in %,[4]; 1.25 g/ha,80%
same,Post-emergence effect at 5 g/ha against PHBPU in %,[4]; 5 g/ha,100%
same,Post-emergence effect at 20 g/ha against PHBPU in %,[4]; 20 g/ha,100%
same,Post-emergence effect at 1.25 g/ha against POLCO in %,[5]; 1.25 g/ha,80%
same,Post-emergence effect at 5 g/ha against POLCO in %,[5]; 5 g/ha,100%
same,Post-emergence effect at 20 g/ha against POLCO in %,[5]; 20 g/ha,100%
same,Post-emergence effect at 1.25 g/ha against AMARE in %,[6]; 1.25 g/ha,100%
same,Post-emergence effect at 5 g/ha against AMARE in %,[6]; 5 g/ha,100%
same,Post-emergence effect at 20 g/ha against AMARE in %,[6]; 20 g/ha,100%
same,Post-emergence effect at 1.25 g/ha against ABUTH in %,[7]; 1.25 g/ha,90%
same,Post-emergence effect at 5 g/ha against ABUTH in %,[7]; 5 g/ha,100%
same,Post-emergence effect at 20 g/ha against ABUTH in %,[7]; 20 g/ha,100%
same,Post-emergence effect at 1.25 g/ha against MATIN in %,[8]; 1.25 g/ha,80%
same,Post-emergence effect at 5 g/ha against MATIN in %,[8]; 5 g/ha,100%
same,Post-emergence effect at 20 g/ha against MATIN in %,[8]; 20 g/ha,100%
